Measurements from US6645991B1, “αvβ3 integrin inhibitors” (Merck Patent GmbH, priority 1999, dated 2003).
pIC50: −log10 of the molar value.

Biological target: receptor αvβ3 (Homo sapiens, UniProt P05106+P06756)
Test: vitronectin binding test (method of Smith et al.)
Text: For the vitronectin binding test, the IC50 value is given, i.e. the concentration in nmol/litre which inhibits 50% of the vitronectin binding to the corresponding isolated receptor (method of Smith et al., J. Biol. Chem. 265, 12267-71, 1990).

receptor αvβ3, sequence (P06756 31-889 limits assumed): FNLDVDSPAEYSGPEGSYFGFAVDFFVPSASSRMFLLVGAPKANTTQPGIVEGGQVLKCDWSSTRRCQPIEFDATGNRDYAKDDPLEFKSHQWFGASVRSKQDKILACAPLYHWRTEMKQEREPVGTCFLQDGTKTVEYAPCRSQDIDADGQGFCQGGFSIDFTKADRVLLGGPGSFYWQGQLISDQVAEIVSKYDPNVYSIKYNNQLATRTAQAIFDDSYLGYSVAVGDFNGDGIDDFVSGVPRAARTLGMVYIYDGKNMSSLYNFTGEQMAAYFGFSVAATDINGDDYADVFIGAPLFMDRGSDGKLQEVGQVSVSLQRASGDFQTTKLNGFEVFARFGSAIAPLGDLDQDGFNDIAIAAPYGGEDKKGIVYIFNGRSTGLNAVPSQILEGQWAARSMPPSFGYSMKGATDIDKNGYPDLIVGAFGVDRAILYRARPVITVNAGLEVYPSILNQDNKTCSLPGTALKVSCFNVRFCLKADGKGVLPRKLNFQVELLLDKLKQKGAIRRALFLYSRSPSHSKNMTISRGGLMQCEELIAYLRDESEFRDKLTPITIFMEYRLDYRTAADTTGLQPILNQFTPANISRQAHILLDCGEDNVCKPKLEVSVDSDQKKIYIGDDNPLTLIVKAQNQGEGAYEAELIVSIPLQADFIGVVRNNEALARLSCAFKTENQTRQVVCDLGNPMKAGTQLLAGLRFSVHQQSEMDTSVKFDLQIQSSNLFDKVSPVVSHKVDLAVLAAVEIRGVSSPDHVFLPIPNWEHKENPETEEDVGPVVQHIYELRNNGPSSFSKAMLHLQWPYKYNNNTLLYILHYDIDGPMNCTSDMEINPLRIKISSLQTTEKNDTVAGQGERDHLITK
receptor αvβ3, sequence (P06756 891-1048 limits assumed): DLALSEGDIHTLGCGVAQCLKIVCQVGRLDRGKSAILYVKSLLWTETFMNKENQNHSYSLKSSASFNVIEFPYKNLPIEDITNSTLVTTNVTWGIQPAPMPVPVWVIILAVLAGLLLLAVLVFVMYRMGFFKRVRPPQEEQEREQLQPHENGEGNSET
receptor αvβ3, sequence (P05106 27-788): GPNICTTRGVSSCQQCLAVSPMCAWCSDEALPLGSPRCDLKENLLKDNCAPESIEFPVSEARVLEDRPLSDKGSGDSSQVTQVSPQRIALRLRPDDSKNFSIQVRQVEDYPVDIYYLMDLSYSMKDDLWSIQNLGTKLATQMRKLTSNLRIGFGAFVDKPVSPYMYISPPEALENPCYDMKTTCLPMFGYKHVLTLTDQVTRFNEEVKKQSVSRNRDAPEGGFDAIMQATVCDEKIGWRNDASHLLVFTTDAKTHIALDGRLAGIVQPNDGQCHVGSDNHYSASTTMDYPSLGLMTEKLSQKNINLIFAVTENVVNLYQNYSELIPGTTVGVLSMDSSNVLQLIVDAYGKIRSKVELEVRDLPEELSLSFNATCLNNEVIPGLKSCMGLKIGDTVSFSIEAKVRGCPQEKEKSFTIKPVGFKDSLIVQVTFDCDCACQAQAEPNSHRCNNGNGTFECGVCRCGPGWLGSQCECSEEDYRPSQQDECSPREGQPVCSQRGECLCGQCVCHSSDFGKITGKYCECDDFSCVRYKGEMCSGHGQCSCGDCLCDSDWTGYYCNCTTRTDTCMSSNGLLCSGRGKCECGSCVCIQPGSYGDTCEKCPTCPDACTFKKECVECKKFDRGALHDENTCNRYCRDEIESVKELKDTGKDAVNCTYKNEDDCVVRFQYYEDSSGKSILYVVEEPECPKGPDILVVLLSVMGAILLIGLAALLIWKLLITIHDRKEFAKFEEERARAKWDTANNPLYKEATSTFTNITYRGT

For `O=C(O)CC(Cc1ccc(OCCCNc2ccccn2)cc1)c1ccccc1` (centres unmarked) [3-phenyl-4-{4-[3-(pyridin-2-ylamino)propoxy]phenyl}butyric acid], the pIC50 (concentration which inhibits 50% of the vitronectin binding to the isolated receptor) was 8.28 and the “Inhibition of vitronectin binding to the receptor αvβ3” value (qualitative statement) was “demonstrated experimentally”.
